# Measurements taken from patent publication US9296734B2 (AMGEN INC., priority 2013, dated 2016).
# Like-named read-outs stand apart in the source and are kept apart here.
# How the values were obtained:
# [1] = system: Aβ40 in conditioned medium of cells stably expressing Amyloid Precursor Protein (APP); assay: In vitro BACE cell-based assay (Aβ40 sandwich ELISA); details: Homo sapiens
# Procedure: In Vitro BACE Cell-Based Assay
# The cell-based assay measures inhibition or reduction of Aβ40 in conditioned medium of test compound treated cells expressing amyloid precursor protein.
# Cells stably expressing Amyloid Precursor Protein (APP) were plated at a density of 40K cells/well in 96 well plates (Costar). The cells were cultivated for 24 hours at 37° C. and 5% CO2 in DMEM supplemented with 10% FBS. The test compounds were then added to cells in 10-point dose response concentrations with the starting concentration being either 100 μM or 10 μM. The compounds were diluted from stock solutions in DMSO and the final DMSO concentration of the test compounds on cells was 0.1%. After 24 h of incubation with the test compounds the supernatant conditioned media was collected and the Aβ 40 levels were determined using a sandwich ELISA. The IC50 of the compound was calculated from the percent of control or percent inhibition of Aβ 40 as a function of the concentration of the test compound.
# The sandwich ELISA to detect Aβ 40 was performed in 96 well microtiter plates, which were pre-treated with goat anti-rabbit IgG (Pierce). The capture and detecting antibody pair that were used to detect Aβ 40 from cell supernatants were affinity purified pAb40 (Biosource) and biotinylated 6E10 (Signet Labs Inc.), respectively. The optimal concentration for the pAb40 antibody was 3 μg/ml in Superblock/TBS (Pierce) that was supplemented with 0.05% Tween 20 (Sigma).
# Cellular supernatants were incubated with the capture antibody for 3 h at 4° C., followed by 3 wash steps in TBS-tween (0.05%). The detecting antibody incubation was for 2 h at 4° C., again followed by the wash steps as described previously. The final readout of the ELISA is Time-Resolved Fluorescence (counts per minute) using Delfia reagents Streptavidin-Europium and Enhancement solutions (Perkin Elmer) and the Victor 2 multilabel counter (Perkin Elmer).
# Cathepsin D (Cat D) = Cathepsin D (Cat D) (Homo sapiens (Human), UniProt P07339); assay: In vitro enzymatic Cathepsin D (Cat D) FRET assay; assay type: biochemical; details: read-out: CatD IC50
# Method in brief: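 CHO-expressed recombinant Cat D cleaves a fluorophore/quencher FRET peptide (20 nM) in 0.05 M citrate pH 3.5, 5 mM CHAPS, 10% DMSO final, over 1 h. Tris addition neutralizes pH to stop the reaction; fluorescence read at excitation 500 nm, emission 580 nm.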
# [2] = molecular target: Beta Secretase enzyme (BACE) (Homo sapiens (Human), UniProt P56817); assay: In vitro enzymatic BACE FRET assay; assay type: biochemical; details: read-out: BACE 1 FRET assay IC50
# Procedure: In Vitro Enzymatic BACE FRET (Fluorescence Resonance Energy Transfer) Assay (Enzyme Assay Data in the Example Table I)
# The assay buffer used in this screen is 0.05 M acetate, pH 4.2, 10% DMSO final, 100 uM genapol (which is a nonionic detergent, below its Critical Micelle Concentration). […] This assay is effectively started by the addition of FRET substrate (50 nM) and the combination is incubated for one hour. The FRET assay is terminated with by addition of Tris buffer, which raises the pH to neutrality, and the fluorescence is determined. The FRET substrate is a peptide with commercially available fluorophore and quencher, on opposite sides of the BACE cleavage site.
# [3] = HEK293, average IC50, HEK cell assay, read-out: HEK cell assay IC50
# [4] = average IC50, cathepsin D enzyme assay
# [5] = average IC50, BACE enzyme assay
# [6] = HEK293, average IC50, HEK cells, read-out: HEK cell assay IC50
# Sequence of Cathepsin D (Cat D) (P07339 65-412, species assumed): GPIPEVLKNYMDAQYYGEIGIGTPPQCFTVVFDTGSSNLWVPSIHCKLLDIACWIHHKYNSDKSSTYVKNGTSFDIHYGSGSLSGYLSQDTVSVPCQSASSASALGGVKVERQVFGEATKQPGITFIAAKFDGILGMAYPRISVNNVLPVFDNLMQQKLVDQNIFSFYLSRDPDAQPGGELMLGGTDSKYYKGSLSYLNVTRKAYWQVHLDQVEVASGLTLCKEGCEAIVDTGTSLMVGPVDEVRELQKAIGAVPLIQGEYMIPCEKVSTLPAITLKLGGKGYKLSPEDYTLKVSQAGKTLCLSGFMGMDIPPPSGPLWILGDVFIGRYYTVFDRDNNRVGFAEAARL
# Sequence of Beta Secretase enzyme (BACE) (P56817 46-501): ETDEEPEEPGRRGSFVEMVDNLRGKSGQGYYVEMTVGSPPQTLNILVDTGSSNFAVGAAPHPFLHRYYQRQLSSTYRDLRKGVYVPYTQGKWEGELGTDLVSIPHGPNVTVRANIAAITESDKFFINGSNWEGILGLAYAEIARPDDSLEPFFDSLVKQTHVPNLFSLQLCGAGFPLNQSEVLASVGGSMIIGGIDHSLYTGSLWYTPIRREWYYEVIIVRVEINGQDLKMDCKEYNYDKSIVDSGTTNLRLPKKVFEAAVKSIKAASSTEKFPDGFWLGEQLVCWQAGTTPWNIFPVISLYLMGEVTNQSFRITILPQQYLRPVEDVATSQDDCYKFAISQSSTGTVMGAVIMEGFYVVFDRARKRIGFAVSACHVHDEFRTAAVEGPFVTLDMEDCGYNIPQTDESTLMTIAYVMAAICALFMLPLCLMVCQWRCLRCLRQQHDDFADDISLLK
Compound,"IC50 [1, 3] [µM]",IC50 (Cathepsin D (Cat D); [4]) [µM],"IC50 [2, 5] [µM]","IC50 [1, 6] [µM]",IC50 (Cathepsin D (Cat D); average IC50) [µM],IC50 ([2]; average IC50) [µM],"IC50 ([1]; HEK293, read-out: HEK cell assay IC50) [µM]"
"NC1=N[C@](CF)(c2cc(Nc3ncc(F)c4cc(C#CC5CC5)cnc34)ccc2F)C[C@@H](C(F)(F)F)O1 [Example 54, (4S,6S)-4-(5-((3-(cyclopropylethynyl)-5-fluoro-1,7-naphthyridin-8-yl)amino)-2-fluorophenyl)-4-(fluoromethyl)-6-(trifluoromethyl)-5,6-dihydro-4H-1,3-oxazin-2-amine]",2.33,> 133,0.033,,,,
"NC1=N[C@](CF)(c2cc(Nc3nccc4cc(C#CC5CC5)cnc34)ccc2F)C[C@@H](C(F)(F)F)O1 [Example 55, (4S,6S)-4-(5-((3-(cyclopropylethynyl)-1,7-naphthyridin-8-yl)amino)-2-fluorophenyl)-4-(fluoromethyl)-6-(trifluoromethyl)-5,6-dihydro-4H-1,3-oxazin-2-amine]",1.02,> 400,0.098,,,,
"C[C@@]1(c2cc(NC(=O)c3ccc(F)cn3)cnc2F)C[C@@H](C(F)(F)F)OC(N)=N1 [Example 64, N-(5-((4S,6S)-2-amino-4-methyl-6-(trifluoromethyl)-5,6-dihydro-4H-1,3-oxazin-4-yl)-6-fluoropyridin-3-yl)-5-fluoropicolinamide]",0.038,> 400,0.206,,,,
"C[C@@]1(c2cc(NC(=O)c3ccc(OCC(F)(F)F)cn3)cnc2F)C[C@@H](C(F)(F)F)OC(N)=N1 [Example 65, N-(5-((4S,6S)-2-amino-4-methyl-6-(trifluoromethyl)-5,6-dihydro-4H-1,3-oxazin-4-yl)-6-fluoropyridin-3-yl)-5-(2,2,2-trifluoroethoxy)picolinamide]",0.124,150,0.079,,,,
"C[C@@]1(c2cc(NC(=O)c3ncc(C#N)cc3Cl)cnc2F)C[C@@H](C(F)(F)F)OC(N)=N1 [Example 66, N-(5-((4S,6S)-2-amino-4-methyl-6-(trifluoromethyl)-5,6-dihydro-4H-1,3-oxazin-4-yl)-6-fluoropyridin-3-yl)-3-chloro-5-cyanopicolinamide]",,,,,> 400,0.0605,0.0351
"Cc1cc(C#N)cnc1C(=O)Nc1cnc(F)c([C@]2(C)C[C@@H](C(F)(F)F)OC(N)=N2)c1 [Example 67, N-(5-((4S,6S)-2-amino-4-methyl-6-(trifluoromethyl)-5,6-dihydro-4H-1,3-oxazin-4-yl)-6-fluoropyridin-3-yl)-5-cyano-3-methylpicolinamide]",,,,0.023,> 400,0.0348,
"CC(C)n1cc(Cl)c(C(=O)Nc2cnc(F)c([C@]3(C)C[C@@H](C(F)(F)F)OC(N)=N3)c2)n1 [Example 71, N-(5-((4S,6S)-2-amino-4-methyl-6-(trifluoromethyl)-5,6-dihydro-4H-1,3-oxazin-4-yl)-6-fluoropyridin-3-yl)-4-chloro-1-isopropyl-1H-pyrazole-3-carboxamide]",5.14,> 400,38.9,,,,
"C[C@@]1(c2cc(Nc3ncnc4cc(Cl)cnc34)cnc2F)C[C@@H](C(F)(F)F)OC(N)=N1 [Example 74, (4S,6S)-4-(5-((7-chloropyrido[3,2-d]pyrimidin-4-yl)amino)-2-fluoropyridin-3-yl)-4-methyl-6-(trifluoromethyl)-5,6-dihydro-4H-1,3-oxazin-2-amine]",,,,0.0376,> 400,0.088,

# The next lines start with results.
"IC50 [1, 3] [µM]",IC50 (Cathepsin D (Cat D); [4]) [µM],"IC50 [2, 5] [µM]","IC50 [1, 6] [µM]",IC50 (Cathepsin D (Cat D); average IC50) [µM],IC50 ([2]; average IC50) [µM],Compound,"IC50 ([1]; HEK293, read-out: HEK cell assay IC50) [µM]"
0.0032,> 400,0.0007,,,,"CC#CCOc1cnc(C(=O)Nc2ccc(F)c([C@]3(CF)C[C@@H](C(F)(F)F)OC(N)=N3)c2)cn1 [Example 39, N-(3-((4S,6S)-2-amino-4-(fluoromethyl)-6-(trifluoromethyl)-5,6-dihydro-4H-1,3-oxazin-4-yl)-4-fluorophenyl)-5-(but-2-yn-1-yloxy)pyrazine-2-carboxamide]",
0.105,> 400,0.13,,,,"NC1=N[C@](CF)(c2cc(NC(=O)c3ncc(C(F)F)cc3Cl)ccc2F)C[C@@H](C(F)(F)F)O1 [Example 40, N-(3-((4S,6S)-2-amino-4-(fluoromethyl)-6-(trifluoromethyl)-5,6-dihydro-4H-1,3-oxazin-4-yl)-4-fluorophenyl)-3-chloro-5-(difluoromethyl)picolinamide]",
0.088,> 400,0.072,,,,"NC1=N[C@](CF)(c2cc(NC(=O)c3ccc(C(F)F)cn3)ccc2F)C[C@@H](C(F)(F)F)O1 [Example 41, N-(3-((4S,6S)-2-amino-4-(fluoromethyl)-6-(trifluoromethyl)-5,6-dihydro-4H-1,3-oxazin-4-yl)-4-fluorophenyl)-5-(difluoromethyl)picolinamide]",
0.051,> 400,0.026,,,,"Cc1cc(OC(F)F)cnc1C(=O)Nc1ccc(F)c([C@]2(CF)C[C@@H](C(F)(F)F)OC(N)=N2)c1 [Example 42, N-(3-((4S,6S)-2-amino-4-(fluoromethyl)-6-(trifluoromethyl)-5,6-dihydro-4H-1,3-oxazin-4-yl)-4-fluorophenyl)-5-(difluoromethoxy)-3-methylpicolinamide]",
,,,0.0679,> 400,0.0564,COc1cc(Cl)cnc1C(=O)Nc1ccc(F)c([C@]2(CF)C[C@@H](C(F)(F)F)OC(N)=N2)c1 [Example 47],
,,,0.0322,> 400,0.0418,"COc1cc(C#N)cnc1C(=O)Nc1ccc(F)c([C@]2(CF)C[C@@H](C(F)(F)F)OC(N)=N2)c1 [Example 48, N-(3-((4S,6S)-2-amino-4-(fluoromethyl)-6-(trifluoromethyl)-5,6-dihydro-4H-1,3-oxazin-4-yl)-4-fluorophenyl)-5-cyano-3-methoxypicolinamide]",
0.196,2990,0.023,,,,"NC1=N[C@](CF)(c2cc(NC(=O)c3ccc(C#CC4CC4)cn3)ccc2F)C[C@@H](C(F)(F)F)O1 [Example 53, N-(3-((4S,6S)-2-amino-4-(fluoromethyl)-6-(trifluoromethyl)-5,6-dihydro-4H-1,3-oxazin-4-yl)-4-fluorophenyl)-5-(cyclopropylethynyl)picolinamid]",
,,,0.106,4060,0.0725,"NC1=N[C@](CF)(c2cc(NC(=O)c3ccc(F)cn3)ccc2F)C[C@@H](C(F)(F)F)O1 [Example 57, N-(3-((4S,6S)-2-amino-4-(fluoromethyl)-6-(trifluoromethyl)-5,6-dihydro-4H-1,3-oxazin-4-yl)-4-fluorophenyl)-5-fluoropicolinamide]",
,,,0.0391,> 400,0.0552,"Cc1cc(Cl)cnc1C(=O)Nc1cnc(F)c([C@]2(C)C[C@@H](C(F)(F)F)OC(N)=N2)c1 [Example 61, N-(5-((4S,6S)-2-amino-4-methyl-6-(trifluoromethyl)-5,6-dihydro-4H-1,3-oxazin-4-yl)-6-fluoropyridin-3-yl)-5-chloro-3-methylpicolinamide]",
,,,0.111,> 400,0.0751,"C[C@@]1(c2cc(NC(=O)c3ncc(Cl)cc3Cl)cnc2F)C[C@@H](C(F)(F)F)OC(N)=N1 [Example 68, N-(5-((4S,6S)-2-amino-4-methyl-6-(trifluoromethyl)-5,6-dihydro-4H-1,3-oxazin-4-yl)-6-fluoropyridin-3-yl)-3,5-dichloropicolinamide]",
0.031,844,0.024,,,,"C[C@@]1(c2cc(NC(=O)c3nn(C(F)F)cc3Cl)cnc2F)C[C@@H](C(F)(F)F)OC(N)=N1 [Example 72, N-(5-((4S,6S)-2-amino-4-methyl-6-(trifluoromethyl)-5,6-dihydro-4H-1,3-oxazin-4-yl)-6-fluoropyridin-3-yl)-4-chloro-1-(difluoromethyl)-1H-pyrazole-3-carboxamide]",
